In patent publication US11247965B2 (VenatoRx Pharmaceuticals, Inc., priority 2017, dated 2022):

What was measured:
[1] = tested on: HBV replication in HepAD38 cells; assay: Anti-HBV activity in HepAD38 cells, extracellular HBV DNA by QPCR; format: cell-based, HBV (genotype D, serotype ayw); settings: Hepatitis B virus, HePAD38, 168 h, read-out: Anti-HBV EC50, HepAD38 cells, extracellular HBV DNA by QPCR, 7 days of incubation
Outline: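 HepAD38 cells (HepG2 with tet-repressible HBV genotype D genome) seeded overnight, tetracycline removed, then treated 7 days with compounds (half-log dilutions, 30 μM–10 nM; 1:200 from DMSO). Supernatant HBV DNA quantified by QPCR against standard curve; % inhibition vs vehicle, EC50 by 4-parameter fit.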

[2] = In vitro cytotoxicity, MTT cell viability assay in HepG2 cells; format: cell-based; settings: human, Cytotoxicity CC50
Outline: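 HepG2 cells incubated 7 days at 37 °C, 5% CO2 with compounds from 30 μM to 1.0 nM (8 half-log dilutions). Viability read as MTT formazan absorbance at 492 nm, normalised to vehicle controls; CC50 from 4-parameter non-linear regression.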

SMILES | EC50 [1] [µM] | CC50 at 7 days [2] [µM]
Cc1cc(NC(=O)c2cccc(C(F)(F)C(=O)N3[C@@H]4CC[C@H]3C[C@H](O)C4)c2F)ccc1F [Example 207, 3-(1,1-difluoro-2-((1R,3s,5S)-3-hydroxy-8-azabicyclo[3.2.1]octan-8-yl)-2-oxoethyl)-2-fluoro-N-(4-fluoro-3-methylphenyl)benzamide] | < 5 | 5 to 30
Cc1cc(NC(=O)c2ccc(F)c(C(F)(F)C(=O)N3[C@@H]4CNC[C@H]3COC4)c2)ccc1F [Example 208, 3-(2-((1R,5S)-3-oxa-7,9-diazabicyclo[3.3.1]nonan-9-yl)-1,1-difluoro-2-oxoethyl)-4-fluoro-N-(4-fluoro-3-methylphenyl)benzamide] | < 5 | 5 to 30
Cc1cc(NC(=O)c2ccc(F)c(C(F)(F)C(=O)N3[C@@H]4COC[C@H]3CN(C(=O)OC(C)(C)C)C4)c2)ccc1F [Example 209, tert-butyl (1R,5S)-9-(2,2-difluoro-2-(2-fluoro-5-((4-fluoro-3-methylphenyl)carbamoyl)phenyl)acetyl)-3-oxa-7,9-diazabicyclo[3.3.1]nonane-7-carboxylate] | < 5 | 5 to 30
Cc1cc(NC(=O)c2ccc(F)c(C(F)(F)C(=O)N3[C@@H]4COC[C@H]3CN(C(=O)N3CCS(=O)(=O)CC3)C4)c2)ccc1F [Example 210, 3-(2-((1R,5S)-7-(1,1-dioxidothiomorpholine-4-carbonyl)-3-oxa-7,9-diazabicyclo[3.3.1]nonan-9-yl)-1,1-difluoro-2-oxoethyl)-4-fluoro-N-(4-fluoro-3-methylphenyl)benzamide] | < 5 | > 30
Cc1cc(NC(=O)c2ccc(F)c(C(F)(F)C(=O)N3[C@@H]4COC[C@H]3CN(S(C)(=O)=O)C4)c2)ccc1F [Example 211, 3-(1,1-difluoro-2-((1R,5S)-7-(methylsulfonyl)-3-oxa-7,9-diazabicyclo[3.3.1]nonan-9-yl)-2-oxoethyl)-4-fluoro-N-(4-fluoro-3-methylphenyl)benzamide] | < 5 | > 30
Cc1cc(NC(=O)c2ccc(F)c(C(F)(F)C(=O)N3CCC(O)(C(N)=O)CC3)c2)ccc1F [Example 212, 1-(2,2-difluoro-2-(2-fluoro-5-((4-fluoro-3-methylphenyl)carbamoyl)phenyl)acetyl)-4-hydroxypiperidine-4-carboxamide] | < 5 | 5 to 30
Cc1cc(NC(=O)c2ccc(F)c(C(F)(F)C(=O)N3[C@@H]4CC[C@H]3COC4)c2)ccc1F [Example 213, 3-(2-((1R,5S)-3-oxa-8-azabicyclo[3.2.1]octan-8-yl)-1,1-difluoro-2-oxoethyl)-4-fluoro-N-(4-fluoro-3-methylphenyl)benzamide] | < 5 | > 30
Cc1cc(NC(=O)c2ccc(F)c(C(F)(F)C(=O)N3[C@H](C)CNC[C@@H]3C)c2)ccc1F [Example 214, 3-(2-((2S,6R)-2,6-dimethylpiperazin-1-yl)-1,1-difluoro-2-oxoethyl)-4-fluoro-N-(4-fluoro-3-methylphenyl)benzamide] | < 5 | 5 to 30
Cc1cc(NC(=O)c2ccc(F)c(C(F)(F)C(=O)N3[C@@H]4CCC[C@H]3[C@H](O)C4)c2)ccc1F [Example 215, 3-(1,1-difluoro-2-((1R,5S,6R)-6-hydroxy-8-azabicyclo[3.2.1]octan-8-yl)-2-oxoethyl)-4-fluoro-N-(4-fluoro-3-methylphenyl)benzamide] | < 5 | 5 to 30
Cc1cc(NC(=O)c2ccc(F)c(C(F)(F)C(=O)N3[C@@H]4CCC[C@H]3C[C@@H](O)C4)c2)ccc1F [Example 216, 3-(1,1-difluoro-2-((1R,3r,5S)-3-hydroxy-9-azabicyclo[3.3.1]nonan-9-yl)-2-oxoethyl)-4-fluoro-N-(4-fluoro-3-methylphenyl)benzamide] | < 5 | 5 to 30
Cc1cc(NC(=O)c2ccc(F)c(C(F)(F)C(=O)N3[C@@H]4CCC[C@H]3C[C@H](O)C4)c2)ccc1F [Example 217, 3-(1,1-difluoro-2-((1R,3s,5S)-3-hydroxy-9-azabicyclo[3.3.1]nonan-9-yl)-2-oxoethyl)-4-fluoro-N-(4-fluoro-3-methylphenyl)benzamide] | < 5 | 5 to 30
Cc1cc(NC(=O)c2cc(C(F)(F)C(=O)N3[C@@H]4CC[C@H]3C[C@H](O)C4)c(F)cc2F)ccc1F [Example 218, 5-(1,1-difluoro-2-((1R,3s,5S)-3-hydroxy-8-azabicyclo[3.2.1]octan-8-yl)-2-oxoethyl)-2,4-difluoro-N-(4-fluoro-3-methylphenyl)benzamide] | < 5 | > 30
Cc1cc(NC(=O)c2cc(F)cc(C(F)(F)C(=O)N3[C@@H]4CC[C@H]3C[C@H](O)C4)c2)ccc1F [Example 219, 3-(1,1-difluoro-2-((1R,3s,5S)-3-hydroxy-8-azabicyclo[3.2.1]octan-8-yl)-2-oxoethyl)-5-fluoro-N-(4-fluoro-3-methylphenyl)benzamide] | 5 to 30 | 5 to 30
Cc1cc(NC(=O)c2cc(C(F)(F)C(=O)N3[C@@H]4CC[C@H]3C[C@H](O)C4)ccc2F)ccc1F [Example 220, 5-(1,1-difluoro-2-((1R,3s,5S)-3-hydroxy-8-azabicyclo[3.2.1]octan-8-yl)-2-oxoethyl)-2-fluoro-N-(4-fluoro-3-methylphenyl)benzamide] | < 5 | 5 to 30
Cc1cc(NC(=O)c2ccc(Cl)c(C(F)(F)C(=O)N3[C@@H]4CC[C@H]3C[C@H](O)C4)c2)ccc1F [Example 221, 4-chloro-3-(1,1-difluoro-2-((1R,3s,5S)-3-hydroxy-8-azabicyclo[3.2.1]octan-8-yl)-2-oxoethyl)-N-(4-fluoro-3-methylphenyl)benzamide] | < 5 | 5 to 30
Cc1cc(NC(=O)c2ccc(F)c(C(F)(F)C(=O)N3CCC(O)(CO)CC3)c2)cc(F)n1 [Example 222, 3-(1,1-difluoro-2-(4-hydroxy-4-(hydroxymethyl)piperidin-1-yl)-2-oxoethyl)-4-fluoro-N-(2-fluoro-6-methylpyridin-4-yl)benzamide] | 5 to 30 | > 30
Cc1cc(NC(=O)c2ccc(F)c(C(F)(F)C(=O)N3[C@@H]4CC[C@H]3C[C@H](O)C4)c2)cc(F)n1 [Example 223, 3-(1,1-difluoro-2-((1R,3s,5S)-3-hydroxy-8-azabicyclo[3.2.1]octan-8-yl)-2-oxoethyl)-4-fluoro-N-(2-fluoro-6-methylpyridin-4-yl)benzamide] | < 5 | < 5
Cc1cc(NC(=O)c2ccc(F)c(C(F)(F)C(=O)N3[C@@H]4CC[C@H]3C[C@@H](O)C4)c2)cc(F)n1 [Example 224, 3-(1,1-difluoro-2-((1R,3r,5S)-3-hydroxy-8-azabicyclo[3.2.1]octan-8-yl)-2-oxoethyl)-4-fluoro-N-(2-fluoro-6-methylpyridin-4-yl)benzamide] | < 5 | < 5
Cc1cc(NC(=O)c2ccc(F)c(C(F)(F)C(=O)N3[C@@H]4CC[C@H]3C[C@@H](NC(=O)OC(C)(C)C)C4)c2)ccc1F [Example 225, tert-butyl ((1R,3r,5S)-8-(2,2-difluoro-2-(2-fluoro-5-((4-fluoro-3-methylphenyl)carbamoyl)phenyl)acetyl)-8-azabicyclo[3.2.1]octan-3-yl)carbamate] | < 5 | 5 to 30
